# ChEMBL document CHEMBL1201862, “PubChem BioAssay data set” (2004)
#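 Growth conditions: 96-well plates. Treatment: test compound, 48 hours, 5 concentrations. Analysis: linear interpolation between bracketing concentrations; unreached endpoints set to highest concentration. GI50 = concentration required for 50% inhibition of growth.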 Active and inactive are the calls of the source. Rule as the data show it: active = GI50 up to about 1.1 µM and inactive = higher. Where a SMILES comes first, the peptide text is derived from it.
# Experiments:
# Assay in all cases: DTP human tumour cell line panel, 48 h
# PC-3 = system: PC-3
# OVCAR-5 = system: OVCAR-5
# A549 = system: A549
# DU-145 = system: DU-145
# COLO 205 = system: COLO 205
# MDA-N = system: MDA-N
# SK-MEL-2 = system: SK-MEL-2
# HT-29 = system: HT-29
# IGROV-1 = system: IGROV-1
# NCI-H460 = system: NCI-H460
# EKVX = system: EKVX
# U-251 = system: U-251
# T47D = system: T47D
# SN12C = system: SN12C
# HOP-62 = system: HOP-62
# RXF 393 = system: RXF 393
# SNB-75 = system: SNB-75
Structure (SMILES),GI50 (PC-3),GI50 (OVCAR-5),GI50 (A549),GI50 (DU-145),GI50 (COLO 205),GI50 (MDA-N),GI50 (SK-MEL-2),GI50 (HT-29),GI50 (IGROV-1),GI50 (NCI-H460),GI50 (EKVX),GI50 (U-251),GI50 (T47D),GI50 (SN12C),GI50 (HOP-62),GI50 (RXF 393),GI50 (SNB-75)
NN(CC(=O)O)CC(=O)O,> 100 µM (inactive),> 100 µM (inactive),> 100 µM (inactive),> 100 µM (inactive),> 100 µM (inactive),> 100 µM (inactive),> 100 µM (inactive),> 100 µM (inactive),> 100 µM (inactive),> 100 µM (inactive),> 100 µM (inactive),> 100 µM (inactive),> 100 µM (inactive),> 100 µM (inactive),> 100 µM (inactive),–,–
CC1(C)COC(c2cccc(C(=O)c3ccccc3)c2)=N1,38.9 µM (inactive),> 100 µM (inactive),55.2 µM (inactive),75.7 µM (inactive),56.9 µM (inactive),41 µM (inactive),> 100 µM (inactive),33.1 µM (inactive),> 100 µM (inactive),59.4 µM (inactive),34.9 µM (inactive),70 µM (inactive),25.7 µM (inactive),32 µM (inactive),> 100 µM (inactive),–,–
O=c1oc(C(C(F)(F)F)C(F)(F)F)nc2ccccc12,> 100 µM (inactive),> 100 µM (inactive),> 100 µM (inactive),–,> 100 µM (inactive),–,> 100 µM (inactive),> 100 µM (inactive),> 100 µM (inactive),> 100 µM (inactive),> 100 µM (inactive),> 100 µM (inactive),–,–,> 100 µM (inactive),> 100 µM (inactive),–
C=C1CC[C@@H](CCC2CCC3(OC2)O[C@]2(O)CC[C@@]3(C)OC2(C)C)C(C)(C)[C@H]1C/C=C1\CCOC1=O (some centres not stated),4.61 µM (inactive),> 56.1 µM (inactive),8.89 µM (inactive),12.5 µM (inactive),16.3 µM (inactive),20 µM (inactive),17.5 µM (inactive),4.93 µM (inactive),18.5 µM (inactive),16.4 µM (inactive),1.11 µM (active),15.1 µM (inactive),–,16.6 µM (inactive),32.1 µM (inactive),14.9 µM (inactive),19.6 µM (inactive)
CCOC(=O)c1nnsc1NN,> 100 µM (inactive),> 100 µM (inactive),62.5 µM (inactive),> 100 µM (inactive),> 100 µM (inactive),72.6 µM (inactive),> 100 µM (inactive),55.5 µM (inactive),> 100 µM (inactive),55.8 µM (inactive),> 100 µM (inactive),> 100 µM (inactive),–,> 100 µM (inactive),> 100 µM (inactive),> 100 µM (inactive),> 100 µM (inactive)
COc1ccccc1N1C(=O)CSC1c1cccc(Oc2ccccc2)c1 (configuration not stated),17.6 µM (inactive),18.5 µM (inactive),21.8 µM (inactive),18.7 µM (inactive),18.6 µM (inactive),–,15.8 µM (inactive),20.1 µM (inactive),–,18.2 µM (inactive),17.2 µM (inactive),17 µM (inactive),18.3 µM (inactive),17.2 µM (inactive),20.1 µM (inactive),17.8 µM (inactive),18.7 µM (inactive)
O=C(O)CCCc1nc2c(n1Cc1ccccc1)C(=O)c1ccccc1C2=O,–,76.9 µM (inactive),30.8 µM (inactive),29.6 µM (inactive),34.2 µM (inactive),22.5 µM (inactive),14.9 µM (inactive),–,59.3 µM (inactive),34.8 µM (inactive),31.6 µM (inactive),54.6 µM (inactive),60.5 µM (inactive),36.9 µM (inactive),–,–,> 10 µM (inactive)
COC1=CC2(CC(OC)=C1OC)OC21COc2ccccc2C1=O (configuration not stated),84.5 µM (inactive),> 100 µM (inactive),56.4 µM (inactive),–,> 100 µM (inactive),–,40.2 µM (inactive),51.4 µM (inactive),> 100 µM (inactive),42.9 µM (inactive),39.4 µM (inactive),73.8 µM (inactive),34.3 µM (inactive),47.2 µM (inactive),> 100 µM (inactive),46 µM (inactive),37.4 µM (inactive)
Cc1nc(C(N)=S)sc1C(=O)C/C(=N/N)C(=O)Nc1ccc(Cl)cc1,72.9 µM (inactive),> 100 µM (inactive),> 100 µM (inactive),–,–,> 100 µM (inactive),> 100 µM (inactive),58.3 µM (inactive),16.5 µM (inactive),55.5 µM (inactive),52.8 µM (inactive),99.5 µM (inactive),46.1 µM (inactive),> 100 µM (inactive),50.8 µM (inactive),> 100 µM (inactive),> 100 µM (inactive)
CCOc1ccc(/C=C2\N=C(c3ccccc3)OC2=O)cc1,> 100 µM (inactive),> 100 µM (inactive),> 100 µM (inactive),–,–,–,> 100 µM (inactive),> 100 µM (inactive),> 100 µM (inactive),> 100 µM (inactive),> 100 µM (inactive),> 100 µM (inactive),–,–,> 100 µM (inactive),> 100 µM (inactive),83 µM (inactive)
CC(=O)c1c(CO[N+](=O)[O-])[n+]([O-])c2ccccc2[n+]1[O-],> 100 µM (inactive),> 100 µM (inactive),> 100 µM (inactive),> 100 µM (inactive),61 µM (inactive),–,> 100 µM (inactive),> 100 µM (inactive),41.5 µM (inactive),> 100 µM (inactive),> 100 µM (inactive),33.8 µM (inactive),61.4 µM (inactive),64.1 µM (inactive),98.2 µM (inactive),–,> 100 µM (inactive)
NCCCCC(N)C(=O)N1CCN(c2nc(N3CCCC3)c3nc(Cl)c(NCc4ccccc4)nc3n2)CC1 (configuration not stated),17.8 µM (inactive),19.1 µM (inactive),18.5 µM (inactive),16.9 µM (inactive),17.4 µM (inactive),17.7 µM (inactive),19 µM (inactive),18.9 µM (inactive),14.1 µM (inactive),17.5 µM (inactive),18.7 µM (inactive),18.9 µM (inactive),–,18.4 µM (inactive),13.9 µM (inactive),15.9 µM (inactive),16.6 µM (inactive)
C[C@]12CC[C@H]3[C@@H](CCC4=CC(=O)CC[C@@]43C)[C@@H]1CC[C@@H]2OC(=O)c1cccc2c(=O)c3ccccc3[nH]c12,44.4 µM (inactive),> 100 µM (inactive),> 100 µM (inactive),–,> 100 µM (inactive),42.1 µM (inactive),> 100 µM (inactive),43.8 µM (inactive),> 100 µM (inactive),46.8 µM (inactive),7.57 µM (inactive),61.2 µM (inactive),57.3 µM (inactive),> 100 µM (inactive),63.5 µM (inactive),75.7 µM (inactive),13.9 µM (inactive)
OCCN(CCO)c1ccc2c(c1)Cc1ccccc1-2,42.6 µM (inactive),48.3 µM (inactive),37.8 µM (inactive),17.7 µM (inactive),18.4 µM (inactive),50.6 µM (inactive),26.7 µM (inactive),18.8 µM (inactive),–,19.7 µM (inactive),43.1 µM (inactive),49.3 µM (inactive),13.5 µM (inactive),52.1 µM (inactive),73.5 µM (inactive),–,–
C/C(Cl)=N/OC(=O)Nc1ccc(F)c([N+](=O)[O-])c1,17.8 µM (inactive),24.2 µM (inactive),26.2 µM (inactive),17.3 µM (inactive),2.34 µM (inactive),16 µM (inactive),17.6 µM (inactive),19.6 µM (inactive),6.97 µM (inactive),4.75 µM (inactive),16.3 µM (inactive),20 µM (inactive),–,7.57 µM (inactive),18.2 µM (inactive),12.1 µM (inactive),1.71 µM (inactive)
CC(OC(=O)NCn1cc(-c2ccccc2)nn1)c1ccccc1 (configuration not stated),2.39 µM (inactive),49.3 µM (inactive),35.7 µM (inactive),42.1 µM (inactive),34.6 µM (inactive),–,37.8 µM (inactive),25.6 µM (inactive),35.4 µM (inactive),46.5 µM (inactive),63.2 µM (inactive),45.7 µM (inactive),–,97.1 µM (inactive),> 100 µM (inactive),–,–
O=C1/C(=C/c2cccc(Br)c2)Cc2ccccc21,29.9 µM (inactive),> 100 µM (inactive),26.8 µM (inactive),53.8 µM (inactive),32.1 µM (inactive),54 µM (inactive),28.8 µM (inactive),45 µM (inactive),16.8 µM (inactive),30.8 µM (inactive),27.7 µM (inactive),> 100 µM (inactive),–,> 100 µM (inactive),44.6 µM (inactive),–,> 100 µM (inactive)
NC(=O)C1CCCN1C(=O)C(N)Cc1ccccc1 (stereo not drawn) (H-Phe-Pro-NH2; configuration not given here),> 100 µM (inactive),> 100 µM (inactive),> 100 µM (inactive),> 100 µM (inactive),> 100 µM (inactive),> 100 µM (inactive),–,> 100 µM (inactive),> 100 µM (inactive),> 100 µM (inactive),> 100 µM (inactive),> 100 µM (inactive),> 100 µM (inactive),–,> 100 µM (inactive),–,–
